Experimental data from article PMC3402595 (Breast Cancer Research and Treatment, 2012).
Where a SMILES comes first, the peptide text is derived from it. [ ]: non-standard residue; d: D form. pS = N[C@@H](COP(=O)(O)O)C(=O)O

Tests used:
[1] = Precipitation of Olaparib; assay type: physicochemical
[2] = molecular target: T1, BRCT(BRCA1) (Homo sapiens, UniProt P38398); conditions: systematic structure activity relationship study; ref [3]; cited from earlier work
[3] = molecular target: T1, BRCT(BRCA1); test: Competitive fluorescence polarization, inhibition of BRCT; assay type: binding

T1 sequence (P38398 1646-1859 limits assumed): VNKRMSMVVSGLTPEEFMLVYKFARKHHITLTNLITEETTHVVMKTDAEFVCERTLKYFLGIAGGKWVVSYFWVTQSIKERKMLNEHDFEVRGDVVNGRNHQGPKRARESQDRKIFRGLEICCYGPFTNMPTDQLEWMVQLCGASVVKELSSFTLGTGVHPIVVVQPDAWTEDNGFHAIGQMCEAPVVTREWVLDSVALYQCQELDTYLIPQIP

concentration at which precipitation of Olaparib was observed [1] | Ki [3] | SMILES | binding affinity for BRCT(BRCA1) [2]
higher than 25 μM | – | O=C(c1cc(Cc2n[nH]c(=O)c3ccccc23)ccc1F)N1CCN(C(=O)C2CC2)CC1 [Olaparib] | –
– | 230 ± 60 nM | CC(=O)N[C@@H](COP(=O)(O)O)C(=O)N1CCC[C@H]1C(=O)N[C@H](C(=O)N[C@@H](Cc1ccccc1)C(=O)O)[C@@H](C)O [Inhibitor 1, Ac-pSPTF-CO2H] (Ac-[pS]PTF-OH) | nanomolar binding affinities
